System: motor proteins
Test: Frequency distribution of the fluctuation value χ of cargo transport, measured with the force measurement device after adding Ciliobrevin to cells
Format: cell-based
Settings: melanocytes; for number of clusters into which the frequency distribution of the fluctuation value χ is classified: four clusters without Ciliobrevin
Procedure: The dish after stain was placed on a heating plate (CU-201, Live Cell Instrument), and the stained melanin vesicles in melanocytes were observed under a dark-field microscope (IX71, Olympus) while the temperature was maintained at 37° C. A video was captured using an EMCCD camera (LucaS (Andor)) with a 100× objective lens (UPlanFL 100x/1.3, Plympus) at 98 frames per second. Time course data of the position of the center of gravity of melanin vesicles was calculated from the video using ImageJ (Rasband, 1997).
FIG. 15A, FIG. 15B and FIG. 15C are diagrams showing specific results showing that the fact that the frequency distribution of the fluctuation value χ changes according to addition of Ciliobrevin which is a reagent that inhibits a function of motor proteins into melanocytes is clear from measurement of χ using the force measurement device 1 of the embodiment.

Question: Ciliobrevin was tested. Which “change in the number of clusters of the fluctuation value χ with the amount of Ciliobrevin added” value (comparison of 0, 20 and 40 μM (FIG. 15A-15C)) did it give?
Answer: The value was “number of clusters decreases as the amount of Ciliobrevin added increases”.

Question: And the “number of clusters into which the frequency distribution of the fluctuation value χ is classified” value (concentration of Ciliobrevin in the cell culture medium 20 μM (FIG. 15B))?
Answer: The value was “two clusters”.

Question: What about the “number of clusters into which the frequency distribution of the fluctuation value χ is classified” value (concentration of Ciliobrevin in the cell culture medium 40 μM (FIG. 15C)) of the same substance?
Answer: The value was “one cluster”.

Source: patent US11448563B2, “Force measurement method, force measurement device, force measurement system, force measurement program, and recording medium” (Tohoku University, priority 2017, dated 2022)
